Results: patent US20100240603A1, “EXPRESSION INHIBITOR OF NUCLEAR TRANSCRIPTION FACTOR AP-1 AND PHARMACEUTICALS AND PRODUCTS USING THE SAME” (ARKRAY, INC., priority 2006, published 2010)
In brackets after ≈: the same amount, converted by molar mass.

Experiments:
[1] = system: nuclear transcription factor AP-1; test: nuclear transcription factor AP-1 SEAP reporter assay in TPA-stimulated HeLa cells; assay type: cell-based; settings: TPA 4 μg/mL, 24 h
Experimental: (§1) HeLa cells were tripsinized and centrifuged at 4° C. and 1,000 rpm for 3 minutes. The collected Hela cells were seeded on a 30-mm dish so that the density was 2×10^5 cells/well, which served as a test plate. With the test plate being placed at 37° C. for 12 hours in the presence of 5% CO2, the cells were cultured and were then transformed. For the transformation, two types of vectors were transfected into the aforementioned cells using a transformation reagent (trade name: Effectene Transfection Reagent, QIAGEN). The vectors used herein were pAP-1 (PMA)-SEAP (trade name) (CLONTECH) (0.4 μg) and pLuc-control (trade name) (CLONTECH) (0.02 μg). The cells transfected with both of the vectors were cultured at 37° C. for 16 hours in the presence of 5% CO2, and then the cultured cells were detached from the aforementioned test plate using trypsin. The detached cells were dispensed into a 96-well plate so that 0.2×10^4 cells were contained in each well. The cells thus dispensed were cultured for two hours. […] The medium thus collected was evaluated for the secreated alkaline phosphatase (SEAP) activity based on the activity of the nuclear transcription factor AP-1 contained in the medium, using a kit (trade name: Great EscAPe SEAP kit, CLONTECK). […]

NF-κB = NF-κB SEAP reporter assay in TNF-alpha-stimulated HeLa cells; assay type: cell-based; settings: TNF-alpha 40 ng/mL, 24 h
Experimental: as §1, with “pNF-κB-SEAP” for “pAP-1 (PMA)-SEAP”, “NF-κB” for “the nuclear transcription factor AP-1”, “medium” for “medium,”

IC50 ([1]; Homo sapiens, HeLa cells transfected with pAP-1 (PMA)-SEAP and pLuc-control, corrected by luciferase activity, read-out: IC50 of inhibition of nuclear transcription factor AP-1 expression (SEAP activity)): 5 µg/mL (≈ 8.67 µM)
IC50 (NF-κB; Homo sapiens, HeLa cells transfected with pNF-κB-SEAP and pLuc-control, corrected by luciferase activity, read-out: IC50 of inhibition of NF-κB expression (SEAP activity)): 80 µg/mL (≈ 139 µM)
Structure (SMILES): CC(O)(CC(=O)O)CC(=O)OCC1OC(Oc2cc(O)c3c(=O)cc(-c4ccc(O)cc4)oc3c2)C(O)C(O)C1O (stereo not shown) [chamaemeloside, apigenin 7-glucoside-6″-(3′″-hydroxy-3′″-methyl-glutarate)]
expression of the nuclear transcription factor AP-1 (FIG. 2) ([1]; HeLa cells, 10, 5.0, 2.5, 1.0 μg/mL): suppressed (inhibited) in a concentration-dependent manner
expression of NF-κB (FIG. 3) (NF-κB; HeLa cells): inhibited the expression of NF-κB in a concentration-dependent manner
